Tests used:
[1] = Blood screening and biochemical examination of blood in bovines given CPL; format: in vivo, bovine
[2] = tested on: endometriosis; experiment: Administration to human patients, endometriosis; format: in vivo
[3] = tested on: breast cancer; experiment: Administration to human patients, breast cancer; format: in vivo; settings: 20 g/day for 210 days
Source text: After extirpation, metastasized to the eye.
person, metastasized to the bone marrow.

[4] = tested on: baldness; experiment: Spray and oral powder, baldness; format: in vivo, human; settings: spray twice a day (10 g in terms of CPL powder) and 10 g/day orally for approximately 50 days
Source text: The said spraying agent was sprayed on a bald part of a head.

[5] = tested on: mastitis; experiment: Administration to bovines, mastitis; format: in vivo, bovine
Experimental: If an antibiotic drug is administered as usual, it takes at least one week after CR to make shipment of milk from the bovines, resulting in loss of 70,000-100,000 yen per bovine. […] Thus, the invention can contribute to dairy managerial economies.

[6] = tested on: infantile asthma, atopic dermatitis; experiment: Administration to a child, infantile asthma, atopic dermatitis; format: in vivo, human; settings: CPL solution plus spraying agent, 15 g/day for 40 days, 10 g/day for next 140 days
Experimental: In addition to the said solution, a spraying agent was used. The said spraying agent was prepared by filling a spraying container with a solution, which was prepared by further diluting by a flux the ointment manufactured by dissolving cyclic polylactic acids in a flux such as propylene glycol, etc. before they solidify, which was described in the <Example of manufacturing> section.

[7] = tested on: hepatitis C; experiment: Administration to a human patient, hepatitis C; format: in vivo; settings: person; 20 g/day for 16 months
[8] = tested on: diarrhea; experiment: Administration to calves, diarrhea; format: in vivo, bovine
Source text: Diarrhea frequently occurred in calves when changing to the milk substitute, which is thought to inhibit normal development of the calves. Then farmers may suffer a serious loss.

[9] = tested on: lung cancer; experiment: MIRS values in a patient suffering from lung cancer before and after taking CPL; format: in vivo, human; settings: after taking CPL; FIG. 15
Source text: In addition, changes in MIRS values in a patient suffering from lung cancer before and after taking CPL.

[10] = tested on: cancer; experiment: Several hundreds of patients suffering from cancer taking CPL; format: in vivo, human; settings: 10-20 g/day
[11] = tested on: subclavian lymphoma; experiment: Administration to a human patient, subclavian lymphoma; format: in vivo; settings: female, 50 g/day for 90 days
[12] = tested on: periodontal disease bacteria; experiment: Control of proliferation of periodontal disease bacteria
[13] = tested on: lactate dehydrogenases (LDH); experiment: Inhibition of lactate dehydrogenase activity of cancer cells; format: biochemical
Source text: Morphologically, it causes vacuolation, and the expansion of the cytoplasm of cells, disintegration and aggregation of the nucleus. […] These are considered to inhibit not only the synthesis of ATP but also the actions of mRNA and be involved in the synthesis of RNA and DNA, and the generation of intracellular energy by acting on the metabolism of the intracellular organelle such as rough-surfaced endoplasmic reticulum, smooth-surfaced endoplasmic reticulum, ribosome, Golgi apparatus, etc., and as a result, controlling the metabolism of the cells, influencing the synthesis of proteins/glycoprotein, intracellular lipid metabolism, and movement and transport of ions. […] Morphologically, in the case that cells end up degenerating, the degeneration generally changes first to the nucleus followed by the cytoplasm.

[14] = tested on: ketosis; experiment: Administration to bovines, ketosis (obese syndrome); format: in vivo, bovine; settings: 100 g/day mesothiol 10 days before delivery, then 100g/day of CPL in combination for 7 days after delivery
Experimental: For 10 days before the expected date of delivery, 100 g/day of mesothiol was administered in bovines with ketosis.

With Cyclic Poly-lactate [CPL] the WBC ([1]; bovine 901 (Screening), 3 May, treatment from 30 April, pretreatment 97) was 96 ×10^2, the GOT ([1]; bovine 901 (Screening), 3 May, treatment from 30 April, pretreatment 134) was 128 U/I and the TCHO ([1]; bovine 901 (Screening), 3 May, treatment from 30 April, pretreatment 255) was 266 mg/dL. The CPK ([1]; bovine 901 (Screening), 3 May, treatment from 30 April, pretreatment 819) was 82 U/I, the WBC ([1]; bovine 901 (Screening), 7 May, pretreatment 97) was 94 ×10^2 and the GOT ([1]; bovine 901 (Screening), 7 May, pretreatment 134) was 116 U/I. The TCHO ([1]; bovine 901 (Screening), 7 May, pretreatment 255) was 245 mg/dL, the CPK ([1]; bovine 901 (Screening), 7 May, pretreatment 819) was 97 U/I and the WBC ([1]; bovine 901 (Screening), 10 May, completion date of treatment, pretreatment 97) was 71 ×10^2. The GOT ([1]; bovine 901 (Screening), 10 May, completion date of treatment, pretreatment 134) was 115 U/I, the TCHO ([1]; bovine 901 (Screening), 10 May, completion date of treatment, pretreatment 255) was 286 mg/dL and the CPK ([1]; bovine 901 (Screening), 10 May, completion date of treatment, pretreatment 819) was 113 U/I. For the same substance, the WBC ([1]; bovine 923 (Garget), 3 May, treatment from 30 April, Spectrazol 2-4 May, pretreatment 101) was 111 ×10^2, the GOT ([1]; bovine 923 (Garget), 3 May, treatment from 30 April, Spectrazol 2-4 May, pretreatment 123) was 107 U/I and the TCHO ([1]; bovine 923 (Garget), 3 May, treatment from 30 April, Spectrazol 2-4 May, pretreatment 247) was 255 mg/dL. For the same substance, the CPK ([1]; bovine 923 (Garget), 3 May, treatment from 30 April, Spectrazol 2-4 May, pretreatment 563) was 203 U/I, the WBC ([1]; bovine 923 (Garget), 7 May, pretreatment 101) was 97 ×10^2 and the GOT ([1]; bovine 923 (Garget), 7 May, pretreatment 123) was 81 U/I. For the same substance, the TCHO ([1]; bovine 923 (Garget), 7 May, pretreatment 247) was 208 mg/dL, the CPK ([1]; bovine 923 (Garget), 7 May, pretreatment 563) was 133 U/I and the WBC ([1]; bovine 923 (Garget), 10 May, completion date of treatment, pretreatment 101) was 110 ×10^2. For the same substance, the GOT ([1]; bovine 923 (Garget), 10 May, completion date of treatment, pretreatment 123) was 107 U/I, the TCHO ([1]; bovine 923 (Garget), 10 May, completion date of treatment, pretreatment 247) was 259 mg/dL and the CPK ([1]; bovine 923 (Garget), 10 May, completion date of treatment, pretreatment 563) was 121 U/I. The “other blood responses such as WBC, GOT, and TCHO” value ([1]; bovines given CPL) was “no specific changes”, the “CPK (muscle enzyme) mean level” value ([1]; group of bovines with markedly high levels of CPK) was “extremely low” and the “CA125 of tumor marker” value ([2]; endometriosis patients, in the majority of the patients) was “improves”. For the same substance, the symptoms of menorrhagia ([2]; person, 10 g/day orally) was “ameliorated”, the menstrual pain ([2]; person, 10 g/day orally, next menstruation) was “ameliorated” and the “course of breast cancer metastasized to the eye” value ([3]; after extirpation) was “satisfactory progress”. For the same substance, the tumor marker ([3]; person, breast cancer metastasized to bone marrow, decreased from 200) was 5, the “hair growth on bald part of head” value [4] was “hair growth is achieved” and the response of mastitis ([5]; oral, 50 g of CPL (powder) dissolved in water) was “Complete response”. The “milking from the other normal udders during treatment” value ([5]; treatment using CPL alone) was “available”, the asthmatic seizures [6] was “stopped” and the “eczema on the back and face” value [6] was “disappeared”. For the same substance, the itchiness [6] was “cured”, the “condition of hepatitis C patient” value [7] was “satisfactory condition” and the “shadow on the liver” value [7] was “disappeared”. The “outcome of diarrhea in calves changing to milk substitute” value ([8]; 20-30 g/day) was “recovered completely”, the “diarrhea in calves that took CPL (prevention)” value ([8]; 20 g/day for the first 4-5 days) was “spontaneously cured” and the “time to complete recovery after CPL administration” value ([8]; calves, 20-30 g/day) was “approximately 3 days”. The “MIRS values in patient suffering from lung cancer” value [9] was “increased significantly”, the “findings of ameliorated adverse reactions, macrobiotic effects and suggestion of a cure” value [10] was “observed in the majority” and the CEA ([11]; decreased from 20.4) was 5.4. For the same substance, the “CA 15” value ([11]; decreased from 70) was 20.3, the “controlling the proliferation of periodontal disease bacteria” value [12] was “effective” and the “activity of lactate dehydrogenases (LDH)” value [13] was “inhibits”. The “level of γGTP” value ([14]; 100 in onset) was 35 and the “level of GOT” value ([14]; 549 in onset) was 83.

— US20060211764A1, “Cell activator, process for producing cell activator and apparatus therefor” (priority 2002, published 2006)
